Results published in patent US8598202B2, “Aryl-hydroxyethylamino-pyrimidines and triazines as modulators of fatty acid amide hydrolase” (Janssen Pharmaceutica NV, priority 2008, dated 2013).
Structures can show the parent of a compound that is named as a salt.

Assays:
[1] = biological target: T1, Rat FAAH-1 (Rattus norvegicus, UniProt P97612); assay: Assay Method 2: rat FAAH-1 assay, 3H-anandamide hydrolysis in homogenate of SK-N-MC cells transfected with rat FAAH
T1 sequence (P97612 1-579): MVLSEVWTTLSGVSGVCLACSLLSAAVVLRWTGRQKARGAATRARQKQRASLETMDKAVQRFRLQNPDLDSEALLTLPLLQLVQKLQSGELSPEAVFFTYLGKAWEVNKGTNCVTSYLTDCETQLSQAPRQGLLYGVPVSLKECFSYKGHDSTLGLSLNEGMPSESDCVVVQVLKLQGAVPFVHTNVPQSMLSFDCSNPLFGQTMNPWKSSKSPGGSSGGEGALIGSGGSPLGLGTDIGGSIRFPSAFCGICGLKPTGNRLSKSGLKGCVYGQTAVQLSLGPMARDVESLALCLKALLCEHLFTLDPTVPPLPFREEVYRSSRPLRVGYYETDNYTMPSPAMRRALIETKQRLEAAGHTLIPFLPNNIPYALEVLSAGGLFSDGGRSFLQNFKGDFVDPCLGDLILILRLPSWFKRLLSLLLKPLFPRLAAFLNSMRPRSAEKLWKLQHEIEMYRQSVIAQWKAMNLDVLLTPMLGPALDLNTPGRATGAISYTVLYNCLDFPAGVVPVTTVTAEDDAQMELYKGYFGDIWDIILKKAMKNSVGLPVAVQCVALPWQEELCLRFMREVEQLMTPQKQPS
Method: The assay mixture consisted of 50 μL of the cell homogenate, 10 μL of the test compound, and 40 μL of anandamide [1-^3H-ethanolamine] (^3H-AEA, Perkin-Elmer, 10.3 Ci/mmol), which was added last, for a final tracer concentration of 80 nM. The reaction mixture was incubated at rt for 1 h. During the incubation, 96-well Multiscreen filter plates (catalog number MAFCNOB50; Millipore, Bedford, Mass., USA) were loaded with 25 μL of activated charcoal (Multiscreen column loader, catalog number MACL09625, Millipore) and washed once with 100 μL of MeOH. […] After the 1 h incubation, 60 μL of the reaction mixture were transferred to the charcoal plates, which were then assembled on top of the DYNEX plates using Centrifuge Alignment Frames (catalog number MACF09604, Millipore). The unbound labeled ethanolamine was centrifuged through to the bottom plate (5 min at 2000 rpm), which was preloaded with the scintillant, as described above. The plates were sealed and left at rt for 1 h before counting on a Hewlett Packard TopCount.

[2] = biological target: T2, FAAH (Homo sapiens, UniProt O00519); assay: Assay Method 1: FAAH assay, 3H-anandamide hydrolysis in homogenate of T84 cells or SK-N-MC cells transfected with human FAAH
T2 sequence (O00519 1-579): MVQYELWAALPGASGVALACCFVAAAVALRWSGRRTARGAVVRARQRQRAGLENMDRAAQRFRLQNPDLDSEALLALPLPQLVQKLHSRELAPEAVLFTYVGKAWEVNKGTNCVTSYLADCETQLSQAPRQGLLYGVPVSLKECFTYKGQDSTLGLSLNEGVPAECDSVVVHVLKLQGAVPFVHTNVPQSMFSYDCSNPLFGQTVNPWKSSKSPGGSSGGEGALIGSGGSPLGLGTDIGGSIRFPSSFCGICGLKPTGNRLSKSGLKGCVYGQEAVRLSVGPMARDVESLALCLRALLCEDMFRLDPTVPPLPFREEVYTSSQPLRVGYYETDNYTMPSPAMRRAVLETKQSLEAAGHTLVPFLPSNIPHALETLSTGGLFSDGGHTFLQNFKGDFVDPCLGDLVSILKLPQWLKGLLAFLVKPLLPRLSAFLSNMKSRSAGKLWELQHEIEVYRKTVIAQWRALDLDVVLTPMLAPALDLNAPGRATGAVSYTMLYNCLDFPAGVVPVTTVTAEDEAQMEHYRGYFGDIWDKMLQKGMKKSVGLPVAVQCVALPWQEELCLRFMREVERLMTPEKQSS

Structure (SMILES)	IC50 [1] [nM]	IC50 [2] [nM]
Cc1c(NC[C@H](O)c2ccccc2)ncnc1-c1ccc(C(F)(F)F)c(Cl)c1 [Example 47, (1R)-2-({6-[3-Chloro-4-(trifluoromethyl)phenyl]-5-methylpyrimidin-4-yl}amino)-1-phenylethanol trifluoroacetic acid salt]	510	26
O[C@@H](CNc1cc(-c2ccc(OC(F)(F)F)c(Cl)c2)ncn1)c1ccc(F)cc1 [Example 175, (1R)-2-({6-[3-Chloro-4-(trifluoromethoxy)phenyl]pyrimidin-4-yl}amino)-1-(4-fluorophenyl)ethanol trifluoroacetic acid salt]	3	2
OC(CNc1cc(-c2ccc(OC(F)(F)F)cc2)ncn1)c1ccc(Cl)cc1 (stereo not drawn) [Example 109, 1-(4-Chlorophenyl)-2-[(6-{4-[(trifluoromethyl)oxy]phenyl}pyrimidin-4-yl)amino]ethanol]	42	150
OC(CNc1cc(-c2ccc(C(F)(F)F)c(Cl)c2)ncn1)c1ccc(F)c(Cl)c1 (stereo not drawn) [Example 134, 1-(3-Chloro-4-fluorophenyl)-2-({6-[3-chloro-4-(trifluoromethyl)phenyl]pyrimidin-4-yl}amino)ethanol trifluoroacetic acid salt]	19	27
CSc1nc(NC[C@H](O)c2ccccc2)cc(-c2ccc(C(F)(F)F)c(F)c2)n1 [Example 102, (1R)-2-({6-[3-Fluoro-4-(trifluoromethyl)phenyl]-2-(methylsulfanyl)pyrimidin-4-yl}amino)-1-phenylethanol trifluoroacetic acid salt]	50	17
OC(CNc1cc(-c2ccc(C(F)(F)F)c(Cl)c2)ncn1)c1cccc(SC(F)(F)F)c1 (stereo not drawn) [Example 198, 2-({6-[3-chloro-4-(trifluoromethyl)phenyl]pyrimidin-4-yl}amino)-1-[3-[(trifluoromethyl)sulfanyl]phenyl]ethanol]	25	92
Cc1c(NC[C@H](O)c2ccccc2)ncnc1-c1ccc(C(F)(F)F)c(F)c1 [Example 48, (1R)-2-({6-[3-Fluoro-4-(trifluoromethyl)phenyl]-5-methylpyrimidin-4-yl}amino)-1-phenylethanol trifluoroacetic acid salt]	1500	105
CCNc1nc(NC[C@H](O)c2ccccc2)cc(-c2ccc(C(F)(F)F)c(Cl)c2)n1 [Example 159, (1R)-2-({6-[3-Chloro-4-(trifluoromethyl)phenyl]-2-(ethylamino)pyrimidin-4-yl}amino)-1-phenylethanol trifluoroacetic acid salt]	7	20
OC(CNc1cc(-c2ccc(OC(F)(F)F)cc2)ncn1)c1ccc(C(F)(F)F)cc1 (stereo not drawn) [Example 108, 2-[(6-{4-[(Trifluoromethyl)oxy]phenyl}pyrimidin-4-yl)amino]-1-[4-(trifluoromethyl)phenyl]ethanol]	150	110
OC(CNc1cc(-c2ccc(C(F)(F)F)c(Cl)c2)ncn1)c1cc(C(F)(F)F)ccc1F (stereo not drawn) [Example 205, 2-({6-[3-Chloro-4-(trifluoromethyl)phenyl]pyrimidin-4-yl}amino)-1-[2-fluoro-5-(trifluoromethyl)phenyl]ethanol]	14	80
CNCCNc1nc(NC[C@H](O)c2ccccc2)cc(-c2ccc(C(F)(F)F)c(Cl)c2)n1 [Example 163, (1R)-2-[(6-[3-Chloro-4-(trifluoromethyl)phenyl]-2-{[2-(methylamino)ethyl]amino}pyrimidin-4-yl)amino]-1-phenylethanol hydrochloride salt]	2000	2000
OC(CNc1cc(-c2ccc(OC(F)(F)F)cc2)ncn1)c1cccnc1 (stereo not drawn) [Example 124, 1-Pyridin-3-yl-2-[(6-{4-[(trifluoromethyl)oxy]phenyl}pyrimidin-4-yl)amino]ethanol]	4000	800
OC(CNc1cc(-c2ccc(OC(F)(F)F)cc2)ncn1)c1cccc(Cl)c1 (stereo not drawn) [Example 116, 1-(3-Chlorophenyl)-2-[(6-{4-[(trifluoromethyl)oxy]phenyl}pyrimidin-4-yl)amino]ethanol]	110	90
OC(CNc1cc(-c2ccc(OC(F)(F)F)cc2)ncn1)c1ccc2c(c1)OCO2 (stereo not drawn) [Example 127, 1-(1,3-Benzodioxol-5-yl)-2-[(6-{4-[(trifluoromethyl)oxy]phenyl}-pyrimidin-4-yl)amino]ethanol]	112	122
CC(C)c1nc(NC[C@H](O)c2ccccc2)cc(-c2ccc(Cl)c(Cl)c2)n1 [Example 137, (1R)-2-{[6-(3,4-Dichlorophenyl)-2-(1-methylethyl)pyrimidin-4-yl]amino}-1-phenylethanol]	5000	920

The remaining lines, values ahead:

IC50 [1] [nM]	IC50 [2] [nM]	Structure (SMILES)
66	26	CC(=O)c1ccc(-c2cc(NCC(O)c3ccccc3)ncn2)cc1 (stereo not drawn) [Example 228, 1-(4-{6-[(2-Hydroxy-2-phenylethyl)amino]pyrimidin-4-yl}phenyl)ethanone]
20	7	O[C@@H](CNc1cc(-c2ccc(OC(F)(F)F)c(Cl)c2)ncn1)c1ccccc1 [Example 181, (1R)-2-({6-[3-Chloro-4-(trifluoromethoxy)phenyl]pyrimidin-4-yl}amino)-1-phenylethanol]
270	81	O=Cc1ccc(-c2cc(NC[C@H](O)c3ccccc3)ncn2)cc1 [Example 22, 4-(6-{[(2R)-2-Hydroxy-2-phenylethyl]amino}pyrimidin-4-yl)benzaldehyde]
> 10000	2000	O[C@@H](CNc1cc(-c2ccc(C(F)(C(F)(F)F)C(F)(F)F)cc2)ncn1)c1ccccc1 [Example 219, (1R)-Phenyl-2-{6-[4-(1,2,2,2-tetrafluoro-1-trifluoromethyl-ethyl)-phenyl]-pyrimidin-4-ylamino}-ethanol]
216	33	OC(CNc1cc(-c2cc3ccccc3s2)ncn1)c1ccccc1 (stereo not drawn) [Example 227, 2-(6-Benzo[b]thiophen-2-yl-pyrimidin-4-ylamino)-1-phenyl-ethanol]
375	34	CCOc1ccc(-c2cc(NCC(O)c3ccccc3)ncn2)cc1 (stereo not drawn) [Example 11, 2-({6-[4-(Ethyloxy)phenyl]pyrimidin-4-yl}amino)-1-phenylethanol]
1500	340	OCc1ccc(-c2cc(NC[C@H](O)c3ccccc3)ncn2)cc1 [Example 21, (1R)-2-([6-[4-(Hydroxymethyl)phenyl]pyrimidin-4-yl]amino)-1-Phenylethanol]
530	542	O=S(=O)(c1ccc(-c2cc(NC[C@H](O)c3ccccc3)ncn2)cc1)N1CCCCC1 [Example 79, (1R)-1-Phenyl-2-({6-[4-(piperidin-1-ylsulfonyl)phenyl]pyrimidin-4-yl}amino)ethanol]
89	36	O[C@@H](CNc1cc(-c2ccc3c(c2)OC(F)(F)O3)ncn1)c1ccccc1 [Example 183, (1R)-2-{[6-(2,2-Difluoro-1,3-benzodioxol-5-yl)pyrimidin-4-yl]amino}-1-phenylethanol]
1700	20	Cn1c(-c2cc(NC[C@H](O)c3ccccc3)ncn2)cc2ccccc21 [Example 55, (1R)-2-{[6-(1-Methyl-1H-indol-2-yl)pyrimidin-4-yl]amino}-1-phenylethanol trifluoroacetic acid salt]
168	74	OC(CNc1cc(-c2ccc(Cl)c(Cl)c2)ncn1)c1ccccc1 (stereo not drawn) [Example 8, 2-{[6-(3,4-Dichlorophenyl)pyrimidin-4-yl]amino}-1-phenylethanol]
8000	400	CC(C)COc1ccc(-c2cc(NC[C@H](O)c3ccccc3)ncn2)cc1 [Example 37, (1R)-2-({6-[4-(2-Methylpropoxy)phenyl]pyrimidin-4-yl}amino)-1-phenylethanol trifluoroacetic acid salt]
